# Test results taken from patent US20060069132A1, “Azolecarboxamide herbicides” (priority 2004, published 2006).
# Like-named read-outs stand apart in the source and are kept apart here.
# How the values were obtained:
# [1] = test system: barnyardgrass; test: Test B pre-/postemergence herbicide test; format: in vivo, Echinochloa crus-galli; settings: for Barnyardgrass plant response rating: postemergence
# Method in brief: (§1)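 Response was scored visually 13 to 15 days after treatment against untreated greenhouse controls, 0 meaning no effect and 100 complete control. Formulations (solvent mixture plus surfactant) went onto soil after planting, onto foliage of 1- to 4-leaf plants, and onto 2-leaf plants in a flooded paddy set including rice and barnyardgrass.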
# [2] = test system: Surinam grass; test: Test B pre-/postemergence herbicide test; format: in vivo, Urochloa decumbens; settings: for Surinam Grass plant response rating: postemergence
# Method in brief: (§2)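 Herbicidal effect was judged by eye on a 0–100 scale after plants stood 13 to 15 days in the greenhouse following pre- or postemergence treatment with surfactant-containing formulations.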
# [3] = test system: corn; test: Test B pre-/postemergence herbicide test; format: in vivo, Zea mays; settings: for Corn plant response rating: postemergence
# Method in brief: as §2
# [4] = test system: large crabgrass; test: Test B pre-/postemergence herbicide test; format: in vivo, Digitaria sanguinalis; settings: for Crabgrass, Large plant response rating: postemergence
# Method in brief: as §2
# [5] = test system: giant foxtail; test: Test B pre-/postemergence herbicide test; format: in vivo, Setaria faberi; settings: for Foxtail, Giant plant response rating: postemergence
# Method in brief: as §2
# [6] = test system: morningglory; test: Test B pre-/postemergence herbicide test; format: in vivo, Ipomoea coccinea; settings: for Morningglory plant response rating: postemergence
# Method in brief: as §1
# [7] = test system: pigweed; test: Test B pre-/postemergence herbicide test; format: in vivo, Amaranthus retroflexus; settings: for Pigweed plant response rating: postemergence
# Method in brief: as §2
# [8] = test system: velvetleaf; test: Test B pre-/postemergence herbicide test; format: in vivo, Abutilon theophrasti; settings: for Velvetleaf plant response rating: postemergence
# Method in brief: as §2
# [9] = test system: blackgrass; test: Test B postemergence herbicide test; format: in vivo, Alopecurus myosuroides; settings: for Blackgrass plant response rating: postemergence
# Method in brief: (§3)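 Visual control ratings, 0–100 versus untreated controls, taken after 13 to 15 days in the greenhouse. Blackgrass received a postemergence spray at the 1- to 4-leaf stage (2–18 cm); ducksalad, umbrella sedge and barnyardgrass were flooded-paddy treated at 2 leaves.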
# [10] = test system: wheat; test: Test B postemergence herbicide test; format: in vivo, Triticum aestivum; parameters: key to Wheat plant response rating: 0 = no effect, 100 = complete control; settings: for Wheat plant response rating: postemergence
# Method in brief: (§4)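 After treating 2-leaf paddy plants or 2–18 cm postemergence plants (1 to 4 leaves) with formulated chemical, researchers kept them in a greenhouse for 13–15 days. Effects were judged visually versus controls: 0 indicates none, 100 total control.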
# [11] = test system: wild oat; test: Test B postemergence herbicide test; format: in vivo, Avena fatua; settings: for Oat, Wild plant response rating: postemergence
# Method in brief: as §4
# [12] = test system: rice; test: Test B flooded paddy test; format: in vivo, Oryza sativa; settings: 1000 g ai/ha, scale 0 to 100 (0 no effect, 100 complete control)
# Method in brief: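 Treated at 2-leaf (paddy) or 1–4-leaf, 2–18 cm (postemergence); greenhouse 13–15 d; visual score vs control, 0 none to 100 complete control; dash = not tested.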
# [13] = test system: small flower umbrella sedge; test: Test B flooded paddy test; format: in vivo, Cyperus difformis; settings: 1000 g ai/ha, scale 0 to 100 (0 no effect, 100 complete control)
# Method in brief: as §3
# [14] = test system: ducksalad; test: Test B flooded paddy test; format: in vivo, Heteranthera limosa; settings: 1000 g ai/ha, scale 0 to 100 (0 no effect, 100 complete control)
# Method in brief: as §3
# [15] = test system: barnyardgrass; test: Test B flooded paddy test; format: in vivo, Echinochloa crus-galli; settings: 1000 g ai/ha, scale 0 to 100 (0 no effect, 100 complete control)
# Method in brief: as §3
# [16] = Postemergence, 500 g ai/ha, visual rating after 13 to 15 days, scale 0 (no effect) to 100 (complete control)
# [17] = 125 g ai/ha, 0 = no effect, 100 = complete control, preemergence
# [18] = 500 g ai/ha, visual rating, 0 = no effect, 100 = complete control, preemergence
# [19] = 125 g ai/ha, visual rating, scale 0 (no effect) to 100 (complete control)
# [20] = 500 g ai/ha, scale 0 to 100, 0 is no effect, 100 is complete control
structure (smiles),measurement,setting,value
"CCn1nc(C(C)(C)C)cc1C(=O)Nc1cc(C(=O)N(C)C)ccc1F [Compound 6, N-[5-[(dimethylamino)carbonyl]-2-fluorophenyl]-3-(1,1-dimethylethyl)-1-ethyl-1H-pyrazole-5-carboxamide]",pest or weed control at 125 g/ha,"[1]; Echinochloa crus-galli, post-emergence, Postemergence, 125 g ai/ha, scale 0 (no effect) to 100 (complete control), read-out: Barnyardgrass plant response rating",0%
same,pest or weed control at 500 g/ha,"[1]; Echinochloa crus-galli, post-emergence, Postemergence, 500 g ai/ha, visual rating after 13 to 15 days, scale 0 (no effect) to 100 (complete control), read-out: Plant response rating, Barnyardgrass",80%
same,pest or weed control at 500 g/ha,"[1]; Echinochloa crus-galli, pre-emergence, Preemergence, 500 g ai/ha, scale 0 to 100, read-out: Barnyardgrass plant response rating",100%
same,pest or weed control at 125 g/ha,"[2]; Urochloa decumbens, post-emergence, Postemergence, 125 g ai/ha, scale 0 (no effect) to 100 (complete control), read-out: Surinam Grass plant response rating",10%
same,pest or weed control at 500 g/ha,"[2]; Urochloa decumbens, post-emergence, Postemergence, 500 g ai/ha, visual rating after 13 to 15 days, scale 0 (no effect) to 100 (complete control), read-out: Plant response rating, Surinam Grass",60%
same,pest or weed control at 500 g/ha,"[2]; Urochloa decumbens, pre-emergence, Preemergence, 500 g ai/ha, scale 0 to 100, read-out: Surinam Grass plant response rating",100%
same,plant injury at 125 g/ha,"[3]; Zea mays, post-emergence, Postemergence, 125 g ai/ha, scale 0 (no effect) to 100 (complete control), read-out: Corn plant response rating",0%
same,"Corn plant response rating (crop injury, 0 = no effect, 100 = complete kill) at 500 g/ha","[3]; Zea mays, post-emergence, Postemergence, 500 g ai/ha, visual rating after 13 to 15 days, scale 0 (no effect) to 100 (complete control)",60%
same,plant injury at 500 g/ha,"[3]; Zea mays, pre-emergence, Preemergence, 500 g ai/ha, scale 0 to 100, read-out: Corn plant response rating",90%
same,pest or weed control at 125 g/ha,"[4]; Digitaria sanguinalis, post-emergence, Postemergence, 125 g ai/ha, scale 0 (no effect) to 100 (complete control), read-out: Crabgrass, Large plant response rating",20%
same,pest or weed control at 500 g/ha,"[4]; Digitaria sanguinalis, post-emergence, Postemergence, 500 g ai/ha, visual rating after 13 to 15 days, scale 0 (no effect) to 100 (complete control), read-out: Plant response rating, Crabgrass, Large",30%
same,pest or weed control at 500 g/ha,"[4]; Digitaria sanguinalis, pre-emergence, Preemergence, 500 g ai/ha, scale 0 to 100, read-out: Crabgrass, Large plant response rating",100%
same,pest or weed control at 125 g/ha,"[5]; Setaria faberi, post-emergence, 336 h, Postemergence, 125 g ai/ha, scale 0 (no effect) to 100 (complete control), read-out: Foxtail, Giant plant response rating",10%
same,pest or weed control at 500 g/ha,"[5]; Setaria faberi, post-emergence, 336 h, Postemergence, 500 g ai/ha, visual rating after 13 to 15 days, scale 0 (no effect) to 100 (complete control), read-out: Plant response rating, Foxtail, Giant",20%
same,pest or weed control at 500 g/ha,"[5]; Setaria faberi, pre-emergence, 336 h, Preemergence, 500 g ai/ha, scale 0 to 100, read-out: Foxtail, Giant plant response rating",100%
same,pest or weed control at 125 g/ha,"[6]; Ipomoea, post-emergence, 336 h, Postemergence, 125 g ai/ha, scale 0 (no effect) to 100 (complete control), read-out: Morningglory plant response rating",0%
same,pest or weed control at 500 g/ha,"[6]; Ipomoea, post-emergence, 336 h, Postemergence, 500 g ai/ha, visual rating after 13 to 15 days, scale 0 (no effect) to 100 (complete control), read-out: Plant response rating, Morningglory",0%
same,pest or weed control at 125 g/ha,"[7]; Amaranthus retroflexus, post-emergence, 336 h, Postemergence, 125 g ai/ha, scale 0 (no effect) to 100 (complete control), read-out: Pigweed plant response rating",20%
same,pest or weed control at 500 g/ha,"[7]; Amaranthus retroflexus, post-emergence, 336 h, Postemergence, 500 g ai/ha, visual rating after 13 to 15 days, scale 0 (no effect) to 100 (complete control), read-out: Plant response rating, Pigweed",70%
same,pest or weed control at 500 g/ha,"[7]; Amaranthus retroflexus, pre-emergence, 336 h, Preemergence, 500 g ai/ha, scale 0 to 100, read-out: Pigweed plant response rating",100%
same,pest or weed control at 125 g/ha,"[8]; Abutilon theophrasti, post-emergence, 336 h, Postemergence, 125 g ai/ha, scale 0 (no effect) to 100 (complete control), read-out: Velvetleaf plant response rating",0%
same,pest or weed control at 500 g/ha,"[8]; Abutilon theophrasti, post-emergence, 336 h, Postemergence, 500 g ai/ha, visual rating after 13 to 15 days, scale 0 (no effect) to 100 (complete control), read-out: Plant response rating, Velvetleaf",60%
same,pest or weed control at 500 g/ha,"[8]; Abutilon theophrasti, pre-emergence, 336 h, Preemergence, 500 g ai/ha, scale 0 to 100, read-out: Velvetleaf plant response rating",100%
same,pest or weed control at 125 g/ha,"[9]; Alopecurus myosuroides, post-emergence, 336 h, Postemergence, 125 g ai/ha, scale 0 (no effect) to 100 (complete control), read-out: Blackgrass plant response rating",20%
same,"Plant response rating, Blackgrass",[9]; [16],90
same,"Plant response rating, Wheat",[10]; [16],40
same,plant injury at 125 g/ha,"[10]; Triticum aestivum, post-emergence, 336 h, Postemergence, 125 g ai/ha, scale 0 (no effect) to 100 (complete control), read-out: Wheat plant response rating",0%
same,pest or weed control at 125 g/ha,"[11]; Avena fatua, post-emergence, 336 h, Postemergence, 125 g ai/ha, scale 0 (no effect) to 100 (complete control), read-out: Oat, Wild plant response rating",10%
same,"Plant response rating, Oat, Wild",[11]; [16],70
same,plant injury at 1000 g/ha,"[12]; Oryza sativa, 336 h, visual rating, 13 to 15 days, read-out: Rice plant response rating",80%
same,pest or weed control at 1000 g/ha,"[13]; Cyperus difformis, 336 h, visual rating, 13 to 15 days, read-out: Sedge, Umbrella plant response rating",90%
same,pest or weed control at 1000 g/ha,"[14]; Heteranthera limosa, 336 h, visual rating, 13 to 15 days, read-out: Ducksalad plant response rating",90%
same,pest or weed control at 1000 g/ha,"[15]; Echinochloa crus-galli, 336 h, visual rating, 13 to 15 days, read-out: Barnyardgrass plant response rating",90%
CCn1nc(C(C)(C)C)cc1C(=O)Nc1cccc(OC(F)(F)F)c1 [Compound 272],Barnyardgrass plant response rating (0 to 100 scale),[1]; [17],10
same,"Plant response rating, Barnyardgrass",[1]; [18],90
same,Barnyardgrass plant response rating,[1]; [19],20
same,Barnyardgrass plant response rating,[1]; [20],80
same,Surinam Grass plant response rating (0 to 100 scale),[2]; [17],10
same,"Plant response rating, Surinam Grass",[2]; [18],70
same,Surinam Grass plant response rating,[2]; [19],10
same,Surinam Grass plant response rating,[2]; [20],60
same,Corn plant response rating (0 to 100 scale),[3]; [17],0
same,"Plant response rating, Corn",[3]; [18],10
same,Corn plant response rating,[3]; [19],30
same,Corn plant response rating,[3]; [20],40
same,"Crabgrass, Large plant response rating (0 to 100 scale)",[4]; [17],80
same,"Plant response rating, Crabgrass, Large",[4]; [18],100
same,"Crabgrass, Large plant response rating",[4]; [19],10
same,"Crabgrass, Large plant response rating",[4]; [20],70
same,"Foxtail, Giant plant response rating (0 to 100 scale)",[5]; [17],30
same,"Plant response rating, Foxtail, Giant",[5]; [18],90
same,"Foxtail, Giant plant response rating",[5]; [19],10
same,"Foxtail, Giant plant response rating",[5]; [20],30
same,Morningglory plant response rating (0 to 100 scale),[6]; [17],0
same,"Plant response rating, Morningglory",[6]; [18],30
same,Morningglory plant response rating,[6]; [19],90
same,Morningglory plant response rating,[6]; [20],100
same,Pigweed plant response rating (0 to 100 scale),[7]; [17],90
same,"Plant response rating, Pigweed",[7]; [18],100
same,Pigweed plant response rating,[7]; [19],100
same,Pigweed plant response rating,[7]; [20],100
same,Velvetleaf plant response rating (0 to 100 scale),[8]; [17],10
same,"Plant response rating, Velvetleaf",[8]; [18],50
same,Velvetleaf plant response rating,[8]; [19],50
same,Velvetleaf plant response rating,[8]; [20],100
same,Blackgrass plant response rating,[9]; [19],60
same,Blackgrass plant response rating,[9]; [20],100
same,Wheat plant response rating,[10]; [19],20
same,Wheat plant response rating,[10]; [20],30
same,"Oat, Wild plant response rating",[11]; [19],60
same,"Oat, Wild plant response rating",[11]; [20],90
same,Rice plant response rating,[12],40
same,"Sedge, Umbrella plant response rating",[13],80
same,Ducksalad plant response rating,[14],80
same,Barnyardgrass plant response rating,[15],50
